Data on seven compounds can be found in ChEMBL document CHEMBL3638734, “5-HT3 receptor modulators, methods of making, and use thereof” (2013).

By Ki is commonly meant a dissociation constant, usually derived from enzyme kinetics or from competition with a known ligand. The low end stands for higher affinity, the high end for lower affinity.

The assay deals with T1, 5-hydroxytryptamine receptor 3A (Homo sapiens, UniProt P46098).
T1 sequence (P46098 whole entry): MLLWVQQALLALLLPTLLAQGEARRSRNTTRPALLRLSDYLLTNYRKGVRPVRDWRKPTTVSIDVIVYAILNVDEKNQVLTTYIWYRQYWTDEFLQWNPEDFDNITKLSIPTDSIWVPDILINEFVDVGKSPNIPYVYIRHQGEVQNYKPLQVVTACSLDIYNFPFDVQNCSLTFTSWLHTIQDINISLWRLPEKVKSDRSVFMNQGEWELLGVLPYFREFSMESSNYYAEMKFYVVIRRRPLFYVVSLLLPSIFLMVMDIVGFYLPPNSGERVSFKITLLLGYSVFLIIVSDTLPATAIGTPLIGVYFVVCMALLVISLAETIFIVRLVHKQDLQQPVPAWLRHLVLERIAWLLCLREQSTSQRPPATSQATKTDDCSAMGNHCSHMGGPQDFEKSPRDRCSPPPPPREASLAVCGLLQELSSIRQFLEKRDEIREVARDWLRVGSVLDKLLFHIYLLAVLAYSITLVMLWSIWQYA
The assay can be described thus: Radioligand Binding Assay: The relative affinity of the various compounds for the human 5-HT3 receptor was measured in a radioligand binding assay, using a scintillation proximity assay (SPA) format. In general terms: In a scintillation proximity assay essentially only radioactivity close to the scintillant gives light.
The compound `O=C1c2cccc3c2c(cn3S(=O)(=O)c2ccccc2)CCN1[C@@H]1CN2CCC1CC2` came in with a Ki of 25 nM.

On to `O=C1c2cccc3[nH]nc(c23)CCN1[C@@H]1CN2CCC1CC2`, for which the affinity, expressed as Ki, was 4 nM.

`Cn1nc2c3c(cccc31)C(=O)N([C@@H]1CN3CCC1CC3)CC2` returned a Ki of 2 nM.

In turn, `CC(C)n1nc2c3c(cccc31)C(=O)N([C@@H]1CN3CCC1CC3)CC2` yielded a Ki of 2 nM.

Take `O=C1c2cccc3c2c(nn3Cc2ccccc2)CCN1[C@@H]1CN2CCC1CC2`: the affinity, expressed as Ki, was 2 nM.

With `O=C1c2cccc3[nH]nc(c23)CCN1[C@H]1CN2CCC1CC2`, the affinity, expressed as Ki, was 108 nM.

With `CCn1nc2c3c(cccc31)C(=O)N([C@@H]1CN3CCC1CC3)CC2`, the Ki was 1 nM.
